Measured values taken from US11473088B2, “Method of treating cancer and method of sensitizing cancer cells to the action of chemotherapeutic agents via growth hormone receptor antagonists or knock down” (Ohio University, priority 2016, dated 2022).
“Also recorded” adds a separate entry of the source. Read-outs that look alike come from different tables or passages of the source. Values belong to the molecule of their own block, whether it stands above or below them.

How the values were obtained:
SK-MEL-28 cells [1] = experiment: ABC transporter RNA (RT-qPCR) following drug treatment; type: cell-based, human; settings: for Efflux Pumps (expression level change, p < 0.05): ABC-transporter pumps with significantly down-regulated RNA expressions: 24 hr. drug exposure, GHR-siRNA vs scr-siRNA transfected
Protocol: (§1) Transfection was performed using siLentFect lipid reagent (Biorad #170-3360, Hercules, Calif.) following the manufacturer's protocol. […] Media was changed after 24 hours. RNA levels were analyzed 48 hours post transfection while protein levels were analyzed at 60 hours post-transfection. For drug treatment, drugs at the specified concentrations noted above were added to the cells 48 hours post-transfection and treated for 24 hours prior to quantitation of RNA expressions.
(§2) RNA extraction, RT-qPCR, and protein extraction were performed as described in Example 1, above.

SK-MEL-5 cells [2] = experiment: as above; type: cell-based, human; settings: 24 hr. drug exposure, GHR-siRNA vs scr-siRNA transfected
Protocol: as §1, §2

MDA-MB-435 cells [3] = experiment: as above; type: cell-based, human; settings: 24 hr. drug exposure, GHR-siRNA vs scr-siRNA transfected
Protocol: as §1, §2

MALME-3M cells [4] = experiment: as above; type: cell-based, human; settings: for Efflux Pumps (expression level change, p < 0.05): ABC-transporter pumps with significantly down-regulated RNA expressions: 24 hr. drug exposure, GHR-siRNA vs scr-siRNA transfected
Protocol: as §1, §2

SK-MEL-5 cells [5] = experiment: as above; type: cell-based, human
MDA-MB-435 cells [6] = experiment: as above; type: cell-based, human; settings: 24 hr sub-EC50 drug, 50 ng/mL hGH
four melanoma cell lines = experiment: Cell proliferation / EC50 determination; settings: read-out: EC50 ranges for the four melanoma cell lines
Protocol: (§4) A 1% (w/v) resazurin (Sigma-Aldrich #R7017) solution in 1× PBS was made and filter-sterilized. The final concentration of resazurin in the assay was 0.004%. Inside the proliferating cells, mildly fluorescent blue resazurin is reduced to a bright pink fluorescent product called resorufin (stable for 4 hours), which allows for a quantitative measure of the percentage of proliferating cells. In all cases, cells were incubated at 37° C. in 5% CO2 for 45-60 min. for adequate sensitivity of detection. Briefly, cells were seeded at 10,000 cells/cm^2 into 96-well plates and transfected as described above. The resazurin assay was performed 60 hours after transfection (unless specified otherwise) and resorufin absorbance was measured at 570 nm (reference wavelength=600 nm) using Spectramax250 (Molecular Devices, Sunnyvale, Calif.) and SoftmaxPro software.
More specifically, SK-MEL-28 cells (FIG. 8A, panel 1), MALME-3M cells (FIG. 8A, panel 2), MDA-MB-435 cells (FIG. 8A, panel 3), and SK-MEL-5 cells (FIG. 8A, panel 4) were treated with increasing doses of hGH for 48 hr. and cell proliferation was estimated using a resazurin-based metabolic assay.
For treatment of melanoma cells, the following five anti-tumor compounds were obtained from the sources mentioned: cisplatin (Calbiochem #232120, Darmstadt, Germany), doxorubicin (Sigma Aldrich #D-1515, St. Louis, Mo.), oridonin (Sigma-Aldrich #O-9639, St. Louis, Mo.), Paclitaxel (Sigma-Aldrich #C-7191), and vemurafenib/PLX4032 (ApexBio #A-3004, Houston, Tex.). […] In the subsequent experiments, the following drug concentrations were used unless specified otherwise: cisplatin (0.5 μM), doxorubicin (10 nM), oridonin (0.5 μM), paclitaxel (1 nM), vemurafenib (2 nM). Treatments were performed for 24 hours starting 48 hours post-transfection with siRNA.

SK-MEL-28 cells [7] = experiment: EC50 of doxorubicin (cell viability); type: cell-based; settings: Homo sapiens, Example 3, read-out: EC50 of doxorubicin against SK-MEL-28 cells
Protocol: Cell viability, following treatments, was performed using Invitrogen's PrestoBlue cell viability assay system. As described previously, it is a resazurin based assay which is reduced to resorufin (absorption at 570 nm) by the reducing environment of metabolically viable cells. It was performed in a 96-well system as described previously.

SK-MEL-28 cells [8] = experiment: RT-qPCR time course after doxorubicin addition; type: cell-based, human; settings: 188 nM doxorubicin
Protocol: (§3) Following treatments, cells were lysed, and RNA extraction was performed using IBI Tri-isolate kit (IBI), following manufacturer's protocol. RT-qPCR was performed as described previously.

MALME-3M cells [9] = experiment: Cell proliferation (resazurin) assay; type: cell-based, human; settings: Homo sapiens, EC50 levels (cisplatin 10 μM, paclitaxel 5 nM), 24 hr, with and without siRNA mediated KD of GHR
Protocol: For hGH treatment, 16 hours after seeding (or 24 hours post-transfection), the cells were serum-starved for 2 hours in serum-free growth media, and hGH (phosphate buffered saline was used as control where applicable) was added at the noted concentrations (0-, 5-, 50-, and 150 ng/ml). Cells were subsequently incubated for 24 hours before evaluating RNA levels. Recombinant hGH was purchased from Antibodies Online (#ABIN2017921, Atlanta, Ga.).
On the other hand, a pronounced drop in proliferation levels in all the cell lines was seen when GHR was knocked down. […] Cell proliferation was estimated using resazurin-based metabolic assay. […] Averages of at least four independent experiments performed in quadruplicate were taken [*, p<0.05, Students t-test]. The results may indicate that human melanoma cells utilize GH-GHR interaction to drive aggressive tumor phenotypes.
To determine this, and referring now to FIGS. 35A-35D, changes in amounts of calcein retained inside cells following treatment with calcein-AM ester was analyzed by the fluorescence readout from intracellular calcein. Increased abundance of transporter pumps is reflected by decreased levels of intracellular calcein. […] Assays were performed 48 hr. post-transfection with either scr-siRNA or GHR-siRNA. […] SK-MEL-28 (FIG. 35C) and MALME-3M (FIG. 35D) cells were exposed to DMSO (vehicle), or 10 um cisplatin (Cis), or 5 nM paclitaxel (Pac) for 24 hr. Treatments were done 48 hr. post-transfection with either scr-siRNA (scr) or GHR-siRNA (GHR). Mean of three independent experiments performed in triplicate was taken. [*, p<0.05, Students t test, n=3]

SK-MEL-28 cells [10] = experiment: Cell proliferation (resazurin) assay; type: cell-based; settings: Homo sapiens, EC50 levels (cisplatin 10 μM, paclitaxel 5 nM), 24 hr, with and without siRNA mediated KD of GHR
Protocol: as §4

[11] = tested on: B16F10 mouse melanoma cells; experiment: ABC-transporter RNA in bGH treated cells (RT-qPCR); type: cell-based
Protocol: as §3
GH upregulates ABC-transporter expression in mouse melanoma B16F10 cells in vitro and in vivo: B16F10 mouse melanoma cells were treated with 50 or 500 ng/mL bGH for 6, 24, 48 or 72 hr and the changes in the RNA levels of specific multidrug exporter pumps were analyzed over time and GH dose. […] RNA extracted from B16F10 tumors grown in GHRKO or bGH mice were analyzed for the above ABC-transporters. In bGH mice, the tumor cells and resulting tumors were exposed in vivo to high endogenous GH and high IGF-1; while in GHRKO mice, the tumor cells and resulting tumors were exposed in vivo to high GH but low IGF1.

[12] = 24 hr sub-EC50 drug, 50 ng/mL hGH
[13] = 24-hour drug, presence vs absence of 50 ng/mL GH

Molecule: N.N.[Cl][Pt][Cl] [cisplatin]
ABCB1 RNA level in response to drug (SK-MEL-28 cells [1]; [12]): Significant upregulation | ABCB5 RNA level in response to drug (SK-MEL-28 cells [1]; [12]): significantly upregulated | ABCG1 RNA level in response to drug (SK-MEL-28 cells [1]; [12]): surged | Efflux Pumps (expression level change, p < 0.05): ABC-transporter pumps with significantly down-regulated RNA expressions (SK-MEL-28 cells [1]): ABCB1, ABCB5, ABCB8, ABCG1 | Efflux Pumps (expression level change, p < 0.05): ABC-transporter pumps with significantly down-regulated RNA expressions (SK-MEL-5 cells [2]): ABCB1, ABCC1, ABCC2, ABCG2 | Efflux Pumps (expression level change, p < 0.05): ABC-transporter pumps with significantly down-regulated RNA expressions (MDA-MB-435 cells [3]): ABCB1, ABCB8, ABCC2, ABCG1,; also recorded: ABCG2 | ABCB8 RNA expression on drug exposure in presence of GH (MALME-3M cells [4]; [13]): increase | Efflux Pumps (expression level change, p < 0.05): ABC-transporter pumps with significantly down-regulated RNA expressions (MALME-3M cells [4]): ABCB1 | ABCB5 RNA expression on drug exposure in presence of GH (SK-MEL-5 cells [5]; [13]): increase | ABCB8 RNA expression on drug exposure in presence of GH (SK-MEL-5 cells [5]; [13]): increase | ABCG2 RNA expression on drug exposure in presence of GH (SK-MEL-5 cells [5]; [13]): increase | ABCB1 RNA level in response to drug (MDA-MB-435 cells [6]): Significant upregulation | ABCC2 RNA level in response to drug (MDA-MB-435 cells [6]): significantly increased | ABCG1 RNA level in response to drug (MDA-MB-435 cells [6]): surged | ABCG2 RNA level in response to drug (MDA-MB-435 cells [6]): significantly upregulated | EC50 (four melanoma cell lines): 3000 to 15000 nM

Molecule: CCCS(=O)(=O)Nc1ccc(F)c(C(=O)c2c[nH]c3ncc(-c4ccc(Cl)cc4)cc23)c1F [vemurafenib]
EC50 (four melanoma cell lines; Homo sapiens): 2 to 20 nM

B1: bGH: growth hormone (bGH) added at 50 or 500 ng/mL to B16F10 mouse melanoma cells (protein, UniProt P01246 27-217, looked up)
Somatotropin: AFPAMSLSGLFANAVLRAQHLHQLAADTFKEFERTYIPEGQRYSIQNTQVAFCFSETIPAPTGKNEAQQKSDLELLRISLLLIQSWLGPLQFLSRVFTNSLVFGTSDRVYEKLKDLEEGILALMRELEDGTPRAGQILKQTYDKFDTNMRSDDALLKNYGLLSCFRKDLHKTETYLRVMKCRRFGEASCAF
RNA expression of Abcb1, Abcg1 and Abcg2 ([11]; 50 and 500 ng/mL bGH, 24, 48, and 72 hr): significantly higher RNA expression | levels of Abcb8, Abcc1, Abcc2, and Abcc4 vs untreated controls ([11]; any dose or time-point in vitro): not significantly different

Further lines, with some results ahead:

EC50 (SK-MEL-28 cells [7]): 188 nM | EC50 (four melanoma cell lines; Homo sapiens): 25 to 100 nM
Molecule: COc1cccc2c1C(=O)c1c(O)c3c(c(O)c1C2=O)C[C@@](O)(C(=O)CO)C[C@@H]3O[C@H]1C[C@H](N)[C@H](O)[C@H](C)O1 [doxorubicin]
ABCB1 RNA expression on drug exposure in presence of GH (SK-MEL-28 cells [1]; [13]): upregulation | ABCB8 RNA expression on drug exposure in presence of GH (SK-MEL-28 cells [1]; [13]): upregulation | ABCB5 RNA level in response to drug (SK-MEL-28 cells [1]; [12]): significantly upregulated | ABCG1 RNA level in response to drug (SK-MEL-28 cells [1]; [12]): surged | ABCG2 RNA level in response to drug (SK-MEL-28 cells [1]; [12]): significantly upregulated | Efflux Pumps (expression level change, p < 0.05): ABC-transporter pumps with significantly down-regulated RNA expressions (SK-MEL-28 cells [1]): ABCB8, ABCC1, ABCG1, ABCG2 | Efflux Pumps (expression level change, p < 0.05): ABC-transporter pumps with significantly down-regulated RNA expressions (SK-MEL-5 cells [2]): ABCB1, ABCB8, ABCG2 | Efflux Pumps (expression level change, p < 0.05): ABC-transporter pumps with significantly down-regulated RNA expressions (MDA-MB-435 cells [3]): ABCB1, ABCB5, ABCC2, ABCG1 | ABCC2 RNA expression on drug exposure in presence of GH (MALME-3M cells [4]; [13]): increase | ABCG1 RNA expression on drug exposure in presence of GH (MALME-3M cells [4]; [13]): increase | ABCB8 RNA level in response to drug (MALME-3M cells [4]; [12]): significant upregulation | ABCG1 RNA level in response to drug (MALME-3M cells [4]; [12]): surged | Efflux Pumps (expression level change, p < 0.05): ABC-transporter pumps with significantly down-regulated RNA expressions (MALME-3M cells [4]): ABCB8, ABCC1, ABCG1, ABCG2 | ABCB5 RNA expression on drug exposure in presence of GH (SK-MEL-5 cells [5]; [13]): increase | ABCB8 RNA level in response to drug (SK-MEL-5 cells [5]; [12]): significant upregulation | ABCG2 RNA level in response to drug (SK-MEL-5 cells [5]; [12]): significantly upregulated | ABCB5 RNA level in response to drug (MDA-MB-435 cells [6]): significantly upregulated | ABCB8 RNA level in response to drug (MDA-MB-435 cells [6]): significant upregulation | rise in ABCB1 RNA (SK-MEL-28 cells [8]; 12-hr): 4 fold | rise in ABCG1 RNA (SK-MEL-28 cells [8]; 12-hr): 8 fold | transcript levels of CDH2, VIM and SNAI1 (SK-MEL-28 cells [8]; 12-hr after addition): increased significantly | GER levels (RNA) (SK-MEL-28 cells [8]; by 24-hr): concomitant rise | rise in autocrine GH transcript (SK-MEL-28 cells [8]; by 24-hr): > 2 fold | RNA levels of ABCB8, ABCC1 and ABCC4 drug efflux pumps (SK-MEL-28 cells [8]; end of 24 hr): significantly higher levels | increase in CDH2 transcript (SK-MEL-28 cells [8]; end of 24 hr): > 3.5 fold | increase in SNAI1 transcript (SK-MEL-28 cells [8]; end of 24 hr): > 2 fold | reduction in the epithelial marker CDH1/E-cadherin (SK-MEL-28 cells [8]; end of 24 hr): > 8 fold

EC50 (four melanoma cell lines; Homo sapiens): 2000 to 8000 nM
Molecule: C=C1C(=O)[C@]23[C@H](O)[C@H]1CC[C@H]2[C@@]12CO[C@]3(O)[C@@H](O)[C@@H]1C(C)(C)CC[C@@H]2O [oridonin]

EC50 (four melanoma cell lines; Homo sapiens): 2 to 8 nM
Molecule: CC(=O)O[C@H]1C(=O)[C@@]2(C)[C@H]([C@H](OC(=O)c3ccccc3)[C@]3(O)C[C@H](OC(=O)[C@H](O)[C@@H](NC(=O)c4ccccc4)c4ccccc4)C(C)=C1C3(C)C)[C@]1(OC(C)=O)CO[C@@H]1C[C@@H]2O [paclitaxel, Paclitaxel]
ABCG2 RNA expression on drug exposure in presence of GH (SK-MEL-28 cells [1]; [13]): upregulation | ABCB5 RNA level in response to drug (SK-MEL-28 cells [1]; [12]): significantly upregulated | ABCC1 RNA level in response to drug (SK-MEL-28 cells [1]; [12]): particularly upregulated | ABCC2 RNA level in response to drug (SK-MEL-28 cells [1]; [12]): significantly increased | ABCG1 RNA level in response to drug (SK-MEL-28 cells [1]; [12]): surged | ABCG2 RNA level in response to drug (SK-MEL-28 cells [1]; [12]): significantly upregulated | Efflux Pumps (expression level change, p < 0.05): ABC-transporter pumps with significantly down-regulated RNA expressions (SK-MEL-28 cells [1]): ABCB5, ABCC1, ABCG1, ABCG2 | Efflux Pumps (expression level change, p < 0.05): ABC-transporter pumps with significantly down-regulated RNA expressions (SK-MEL-5 cells [2]): ABCB8, ABCC1, ABCC2 | Efflux Pumps (expression level change, p < 0.05): ABC-transporter pumps with significantly down-regulated RNA expressions (MDA-MB-435 cells [3]): ABCB5, ABCB8, ABCG1, ABCG2 | ABCB8 RNA level in response to drug (MALME-3M cells [4]; [12]): significant upregulation | ABCC2 RNA level in response to drug (MALME-3M cells [4]; [12]): significantly increased | Efflux Pumps (expression level change, p < 0.05): ABC-transporter pumps with significantly down-regulated RNA expressions (MALME-3M cells [4]): ABCB8, ABCC1, ABCG1 | ABCB5 RNA expression on drug exposure in presence of GH (SK-MEL-5 cells [5]; [13]): increase | ABCB8 RNA level in response to drug (SK-MEL-5 cells [5]; [12]): significant upregulation | ABCC1 RNA level in response to drug (SK-MEL-5 cells [5]; [12]): particularly upregulated | ABCC2 RNA level in response to drug (SK-MEL-5 cells [5]; [12]): significantly increased | ABCG1 RNA level in response to drug (MDA-MB-435 cells [6]): surged | inhibition at 0.005 µM (MALME-3M cells [9]): > 90% | inhibition at 0.005 µM (SK-MEL-28 cells [10]): > 90%
